# Source: ChEMBL document CHEMBL1201862, “PubChem BioAssay data set” (2004)
# Activity calls are given as the source filed them. Rule as the data show it: actives have a measured IC50 and inactives only a lower limit.
# Target: Envelope glycoprotein gp160 (Human immunodeficiency virus 1, UniProt Q6QLK5)
# Assay: cell-free HIV fusion peptide-binding blockers – biochemical, uHTS, fluorescence dequenching, […] (AID 1986)
# Envelope glycoprotein gp160, sequence (Q6QLK5 whole entry, the tested form may be a part): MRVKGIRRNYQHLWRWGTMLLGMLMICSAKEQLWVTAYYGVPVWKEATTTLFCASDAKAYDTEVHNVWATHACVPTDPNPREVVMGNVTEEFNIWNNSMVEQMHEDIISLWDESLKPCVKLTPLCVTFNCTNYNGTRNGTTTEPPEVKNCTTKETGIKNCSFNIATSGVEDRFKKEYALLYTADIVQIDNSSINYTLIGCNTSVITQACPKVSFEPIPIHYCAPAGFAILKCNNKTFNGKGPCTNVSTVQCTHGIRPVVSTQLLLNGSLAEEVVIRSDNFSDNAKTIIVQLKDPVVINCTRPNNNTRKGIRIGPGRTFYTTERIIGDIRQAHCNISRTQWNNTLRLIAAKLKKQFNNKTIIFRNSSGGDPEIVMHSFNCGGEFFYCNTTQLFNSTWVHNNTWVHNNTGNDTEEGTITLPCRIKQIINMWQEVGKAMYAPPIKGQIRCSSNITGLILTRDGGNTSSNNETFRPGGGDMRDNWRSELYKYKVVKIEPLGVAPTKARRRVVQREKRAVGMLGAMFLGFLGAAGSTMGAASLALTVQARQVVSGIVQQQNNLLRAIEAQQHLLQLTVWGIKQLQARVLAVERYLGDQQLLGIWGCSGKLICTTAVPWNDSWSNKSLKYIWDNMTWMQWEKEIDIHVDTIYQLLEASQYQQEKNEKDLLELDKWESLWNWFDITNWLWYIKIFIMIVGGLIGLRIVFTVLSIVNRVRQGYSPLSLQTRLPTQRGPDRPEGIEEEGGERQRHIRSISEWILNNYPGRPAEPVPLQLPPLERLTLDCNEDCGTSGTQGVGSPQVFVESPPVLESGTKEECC
compound,measurement,value
O=C(O)c1ccc(-c2ccc(/C=c3/sc4nc5ccccc5n4c3=O)o2)cc1Cl,IC50,13.7 µM (active)
